Laboratory results reported in PMC8304660, “Identification of Erythromycin and Clarithromycin Metabolites Formed in Chicken Liver Microsomes Using Liquid Chromatography–High-Resolution Mass Spectrometry” (Foods, 2021).
Where “and” joins values, the source holds several entries; their conditions need not be identical. Identical values can stand only once.

How the values were obtained:
[1] = In vitro incubation in chicken liver microsomes with or without NADPH, LC/ESI-HR-MS analysis; type: in vitro ADME; details: for Remaining Content −Cofactor, Mean ± SD (%) / Remaining Content (%) −Cofactor, 1 / Remaining Content (%) −Cofactor, 2 / Remaining Content (%) −Cofactor, 3 / Remaining Content +Cofactor, Mean ± SD (%) / Remaining Content (%) +Cofactor, 1 / Remaining Content (%) +Cofactor, 2 / Remaining Content (%) +Cofactor, 3: chicken liver microsomes (CLM), 60 min vs 0 min incubation; for Remaining Content −Cofactor, Mean ± SD (%) / Remaining Content (%) −Cofactor, 1 / Remaining Content (%) −Cofactor, 2 / Remaining Content (%) −Cofactor, 3: no NADPH (control); for Remaining Content −Cofactor, Mean ± SD (%) / Remaining Content +Cofactor, Mean ± SD (%): mean of 3; for Remaining Content (%) −Cofactor, 1 / Remaining Content (%) +Cofactor, 1: replicate 1; for Remaining Content (%) −Cofactor, 2 / Remaining Content (%) +Cofactor, 2: replicate 2; for Remaining Content (%) −Cofactor, 3 / Remaining Content (%) +Cofactor, 3: replicate 3; for Remaining Content +Cofactor, Mean ± SD (%) / Remaining Content (%) +Cofactor, 1 / Remaining Content (%) +Cofactor, 2 / Remaining Content (%) +Cofactor, 3: with NADPH cofactor; for Remaining Content (%) +Cofactor, 2: tested at 1 µM; for Remaining Content (%) +Cofactor, 3: tested at 1 µM; for Remaining Content (%) −Cofactor, 2: tested at 1 µM; for Remaining Content (%) −Cofactor, 3: tested at 1 µM; for Remaining Content +Cofactor, Mean ± SD (%): tested at 1 µM; for Remaining Content −Cofactor, Mean ± SD (%): tested at 1 µM
Procedure: The incubation system (100 μL) contained 65 μL of potassium phosphate buffer (0.1 M, pH 7.4), 20 μL of chicken liver microsomes (5 mg/mL), 5 μL of a compound (20 μM) and […]. After a 5 min preincubation period at 37 °C, the reaction was started by introducing 10 μL of NADPH (10 mM) as the cofactor solution. The final study groups were divided into cofactor and no cofactor (control) groups. After preincubation for 5 min, 10 μL of potassium phosphate buffer (0.1 M, pH 7.4) was added to the control group. […] For 0 min samples, the reaction was quenched immediately after the 5-min preincubation, followed by the addition of 10 μL of NADPH (10 mM) and 10 μL of potassium phosphate buffer (0.1 M, pH 7.4) to the cofactor and control groups, respectively. Following brief sonication (5 min) and vortexing (5 min), the mixtures were centrifuged for 30 min at 3000 rpm and 4 °C. The supernatant was transferred to an Agilent 96-well plate and then analysed on an Agilent 6530 Q-TOF LC-MS/MS instrument.
Liquid chromatographic separation and mass spectrometric detection were performed on an Agilent 1200 series HPLC system and an Agilent 6530 Q-TOF LC-MS/MS system equipped with a dual AJS ESI ion source. Chromatographic separation was performed on an Agilent Eclipse Plus C18 column (100 mm × 2.1 mm; i.d. 3.5 µm) by gradient elution with a mobile phase consisting of 0.1 vol.% formic acid in water (A) and ACN (B) at 40 °C: 0–2 min, 5 vol.% B; 2–3 min, 50 vol.% B; 3–4 min, 75 vol.% B; and 4-5 min, 5 vol.% B. The injection volume was 5 μL with a flow rate of 0.4 mL/min. Before sample injection, the instrument was equilibrated under the initial gradient conditions (A:B = 95:5, v/v) and the above-mentioned column temperature and flow rate conditions. HR-MS detection was carried out in positive ionization mode with the following ion source parameters: capillary voltage, 4000 V; drying gas, 12 L/min and 325 °C; nebulizer gas, 35 psi; and sheath gas, 10 L/min and 350 °C. Mass spectra were acquired in positive ion auto MS/MS mode (F, 100 V; CE, 0 eV) with a full scan range of m/z (100–1000) and a mass scan rate of 5 spectra/s. The mass spectrometer was run in an extended dynamic range mode with a mass range of m/z 50–3200. The mass resolving power was greater than 12,000 FWHM at m/z 1552.
The data were analysed using Agilent MassHunter Quantitative Analysis software (version B.05.00) and Agilent MassHunter Metabolite ID software (version B.04.00) (Santa Clara, CA, USA). The remaining content was evaluated by dividing the ratio of the response of the target compound to the response of the IS at 60 min of incubation by the ratio of the response of the target compound to the response of the IS at 0 min of incubation in the cofactor group or control group.

CYP3A4 = tested on: CYP3A4; set-up: method as in PMID 1732074, PMID 1976065; details: midazolam as the CYP3A4 substrate; cited from earlier work
P-GP = tested on: P-GP; set-up: method as in PMID 1732074, PMID 1976065; details: cited from earlier work

Remaining Content −Cofactor, Mean ± SD (%) [1] [%] | Remaining Content (%) −Cofactor, 1 [1] [%] | Remaining Content (%) −Cofactor, 2 [1] [%] | Remaining Content (%) −Cofactor, 3 [1] [%] | Remaining Content +Cofactor, Mean ± SD (%) [1] | Remaining Content (%) +Cofactor, 1 [1] [%] | Remaining Content (%) +Cofactor, 2 [1] [%] | Remaining Content (%) +Cofactor, 3 [1] [%] | Compound | Formation of N-desmethyl metabolite ([1]; chicken liver microsomes, incubation for 60 min with NADPH cofactor, extracted ion chromatograms) | Strength of drug interaction (CYP3A4) | Inhibition of the activity of the drug transporter P-GP (P-GP)
86.6 ± 12.3 | 100.7 | 78.7 | 80.3 | 89.8% and 89.8 ± 21.5% | 77.5 | 77.3 | 114.7 | CC[C@H]1OC(=O)[C@H](C)[C@@H](O[C@H]2C[C@@](C)(OC)[C@@H](O)[C@H](C)O2)[C@H](C)[C@@H](O[C@@H]2O[C@H](C)C[C@H](N(C)C)[C@H]2O)[C@](C)(OC)C[C@@H](C)C(=O)[C@H](C)[C@@H](O)[C@]1(C)O [CLA, clarithromycin] | cannot produce N-desmethyl-clarithromycin | strong | do not inhibit
81.5 ± 13.8 | 87.5 | 65.7 | 91.2 | 48.9% and 48.9 ± 4.5% | 46.4 | 46.2 | 54.1 | O=C1CC2(CCCC2)CC(=O)N1CCCCN1CCN(c2ncccn2)CC1 [BUS, buspirone] | – | – | –
94.8 ± 6.3 | 99.0 | 97.9 | 87.6 | 86.6% and 86.6 ± 6.5% | 82.6 | 83.1 | 94.1 | CC[C@H]1OC(=O)[C@H](C)[C@@H](O[C@H]2C[C@@](C)(OC)[C@@H](O)[C@H](C)O2)[C@H](C)[C@@H](O[C@@H]2O[C@H](C)C[C@H](N(C)C)[C@H]2O)[C@](C)(O)C[C@@H](C)C(=O)[C@H](C)[C@@H](O)[C@]1(C)O [ERY, erythromycin A] | – | – | –
